Results: PubChem BioAssay (NCI)
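Dose response: 5 concentrations. Exposure: 48 h. Format: 96-well plates. Endpoint: linear interpolation; highest concentration if not reached. TGI denotes the concentration required for complete inhibition of growth.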

How the values were obtained:
Assay in all cases: NCI anticancer screen, dose series, 48 h
[1] = system: 786-0 renal
[2] = system: A498 renal
[3] = system: A549 NSCLC
[4] = system: ACHN renal
[5] = system: BT-549 breast
[6] = system: CAKI-1 renal
[7] = system: CCRF-CEM leukemia
[8] = system: COLO 205 colon
[9] = system: DU-145 prostate
[10] = system: EKVX NSCLC
[11] = system: HCC-2998 colon
[12] = system: HCT-116 colon
[13] = system: HCT-15 colon
[14] = system: HL-60(TB) leukemia
[15] = system: HOP-62 NSCLC
[16] = system: HS 578T breast
[17] = system: HT29 colon
[18] = system: IGROV1 ovarian
[19] = system: K-562 leukemia
[20] = system: KM12 colon
[21] = system: LOX IMVI melanoma
[22] = system: M14 melanoma
[23] = system: MALME-3M melanoma
[24] = system: MCF7 breast
[25] = system: MDA-MB-231 breast
[26] = system: MDA-MB-435
[27] = system: MDA-N
[28] = system: MOLT-4 leukemia
[29] = system: NCI-H226 lung
[30] = system: NCI-H23 lung
[31] = system: NCI-H460 lung
[32] = system: NCI-H522 lung
[33] = system: NCI/ADR-RES ovarian
[34] = system: OVCAR-3 ovarian
[35] = system: OVCAR-4 ovarian
[36] = system: OVCAR-5 ovarian
[37] = system: OVCAR-8 ovarian
[38] = system: PC-3 prostate
[39] = system: RPMI-8226 leukemia
[40] = system: RXF 393 renal
[41] = system: SF-268 CNS
[42] = system: SF-295 CNS
[43] = system: SF-539 CNS
[44] = system: SK-MEL-2 melanoma
[45] = system: SK-MEL-28 melanoma
[46] = system: SK-MEL-5 melanoma
[47] = system: SK-OV-3 ovarian
[48] = system: SN12C renal
[49] = system: SNB-19 CNS
[50] = system: SNB-75 CNS
[51] = system: SR leukemia
[52] = system: SW-620 colon
[53] = system: T-47D breast
[54] = system: U251 CNS
[55] = system: UACC-257 melanoma
[56] = system: UACC-62 melanoma
[57] = system: UO-31 renal
[58] = system: HOP-92 NSCLC
[59] = system: TK-10 renal

CCCN=C(NC(=O)c1ccc(Cl)cc1)SC
TGI [1]: > 100 µM | TGI [2]: 99.8 µM | TGI [3]: > 100 µM | TGI [4]: > 100 µM | TGI [5]: 89.8 µM | TGI [6]: > 100 µM | TGI [7]: > 100 µM | TGI [8]: > 100 µM | TGI [9]: > 100 µM | TGI [10]: > 100 µM | TGI [11]: > 100 µM | TGI [12]: > 100 µM | TGI [13]: > 100 µM | TGI [14]: > 100 µM | TGI [15]: > 100 µM | TGI [16]: 95 µM | TGI [17]: > 100 µM | TGI [18]: > 100 µM | TGI [19]: > 100 µM | TGI [20]: > 100 µM | TGI [21]: > 100 µM | TGI [22]: > 100 µM | TGI [23]: > 100 µM | TGI [24]: > 100 µM | TGI [25]: > 100 µM | TGI [26]: > 100 µM | TGI [27]: > 100 µM | TGI [28]: > 100 µM | TGI [29]: > 100 µM | TGI [30]: > 100 µM | TGI [31]: > 100 µM | TGI [32]: > 100 µM | TGI [33]: > 100 µM | TGI [34]: > 100 µM | TGI [35]: > 100 µM | TGI [36]: > 100 µM | TGI [37]: > 100 µM | TGI [38]: > 100 µM | TGI [39]: > 100 µM | TGI [40]: > 100 µM | TGI [41]: > 100 µM | TGI [42]: > 100 µM | TGI [43]: > 100 µM | TGI [44]: > 100 µM | TGI [45]: > 100 µM | TGI [46]: > 100 µM | TGI [47]: > 100 µM | TGI [48]: > 100 µM | TGI [49]: > 100 µM | TGI [50]: 97.2 µM | TGI [51]: > 100 µM | TGI [52]: > 100 µM | TGI [53]: > 100 µM | TGI [54]: > 100 µM | TGI [55]: > 100 µM | TGI [56]: > 100 µM | TGI [57]: 46.4 µM

NCCc1nc(-c2nc(C(=O)O)cs2)cs1
TGI [1]: > 100 µM | TGI [2]: > 100 µM | TGI [3]: > 100 µM | TGI [4]: > 100 µM | TGI [5]: > 100 µM | TGI [6]: > 100 µM | TGI [7]: > 100 µM | TGI [8]: > 100 µM | TGI [9]: > 100 µM | TGI [10]: > 100 µM | TGI [12]: > 100 µM | TGI [13]: > 100 µM | TGI [14]: > 100 µM | TGI [15]: > 100 µM | TGI [58]: > 100 µM | TGI [16]: > 100 µM | TGI [17]: > 100 µM | TGI [18]: > 100 µM | TGI [19]: > 100 µM | TGI [20]: > 100 µM | TGI [21]: > 100 µM | TGI [22]: > 100 µM | TGI [23]: > 100 µM | TGI [24]: > 100 µM | TGI [25]: > 100 µM | TGI [26]: > 100 µM | TGI [27]: > 100 µM | TGI [28]: > 100 µM | TGI [30]: > 100 µM | TGI [31]: > 100 µM | TGI [32]: > 100 µM | TGI [33]: > 100 µM | TGI [34]: > 100 µM | TGI [35]: > 100 µM | TGI [36]: > 100 µM | TGI [37]: > 100 µM | TGI [38]: > 100 µM | TGI [39]: > 100 µM | TGI [40]: > 100 µM | TGI [41]: > 100 µM | TGI [42]: > 100 µM | TGI [43]: > 100 µM | TGI [44]: > 100 µM | TGI [45]: > 100 µM | TGI [46]: > 100 µM | TGI [47]: > 100 µM | TGI [48]: > 100 µM | TGI [49]: > 100 µM | TGI [50]: > 100 µM | TGI [51]: > 100 µM | TGI [52]: > 100 µM | TGI [53]: > 100 µM | TGI [59]: > 100 µM | TGI [54]: > 100 µM | TGI [55]: > 100 µM | TGI [56]: > 100 µM | TGI [57]: > 100 µM

CNC(=O)N1CCN(C(=O)NC)CCN(C(=O)NC)CC1
TGI [1]: > 100 µM | TGI [2]: > 100 µM | TGI [3]: > 100 µM | TGI [4]: > 100 µM | TGI [5]: > 100 µM | TGI [7]: > 100 µM | TGI [8]: > 100 µM | TGI [9]: > 100 µM | TGI [10]: > 100 µM | TGI [11]: > 100 µM | TGI [12]: > 100 µM | TGI [13]: > 100 µM | TGI [14]: > 100 µM | TGI [15]: > 100 µM | TGI [58]: > 100 µM | TGI [16]: > 100 µM | TGI [17]: > 100 µM | TGI [18]: > 100 µM | TGI [19]: > 100 µM | TGI [21]: > 100 µM | TGI [22]: > 100 µM | TGI [23]: > 100 µM | TGI [24]: > 100 µM | TGI [25]: > 100 µM | TGI [27]: > 100 µM | TGI [28]: > 100 µM | TGI [29]: > 100 µM | TGI [30]: > 100 µM | TGI [31]: > 100 µM | TGI [32]: > 100 µM | TGI [33]: > 100 µM | TGI [36]: > 100 µM | TGI [37]: > 100 µM | TGI [38]: > 100 µM | TGI [39]: > 100 µM | TGI [40]: > 100 µM | TGI [41]: > 100 µM | TGI [42]: > 100 µM | TGI [44]: > 100 µM | TGI [45]: > 100 µM | TGI [46]: > 100 µM | TGI [47]: > 100 µM | TGI [48]: > 100 µM | TGI [49]: > 100 µM | TGI [50]: > 100 µM | TGI [51]: > 100 µM | TGI [52]: > 100 µM | TGI [53]: > 100 µM | TGI [59]: > 100 µM | TGI [54]: > 100 µM | TGI [55]: > 100 µM | TGI [56]: > 100 µM | TGI [57]: > 100 µM

C1=C2C3=[N+](CCCC3)CC2Cc2ccsc21 (configuration not stated)
TGI [1]: > 100 µM | TGI [2]: > 100 µM | TGI [3]: > 100 µM | TGI [4]: > 100 µM | TGI [5]: > 100 µM | TGI [6]: > 100 µM | TGI [7]: > 100 µM | TGI [8]: > 100 µM | TGI [9]: > 100 µM | TGI [10]: > 100 µM | TGI [12]: > 100 µM | TGI [13]: > 100 µM | TGI [14]: > 100 µM | TGI [15]: > 100 µM | TGI [58]: > 100 µM | TGI [16]: > 100 µM | TGI [17]: > 100 µM | TGI [18]: > 100 µM | TGI [19]: > 100 µM | TGI [20]: > 100 µM | TGI [21]: > 100 µM | TGI [22]: > 100 µM | TGI [23]: > 100 µM | TGI [24]: > 100 µM | TGI [25]: > 100 µM | TGI [26]: > 100 µM | TGI [27]: > 100 µM | TGI [28]: > 100 µM | TGI [29]: > 100 µM | TGI [30]: > 100 µM | TGI [31]: > 100 µM | TGI [32]: > 100 µM | TGI [33]: > 100 µM | TGI [34]: > 100 µM | TGI [35]: > 100 µM | TGI [36]: > 100 µM | TGI [37]: > 100 µM | TGI [38]: > 100 µM | TGI [40]: > 100 µM | TGI [41]: > 100 µM | TGI [42]: > 100 µM | TGI [44]: > 100 µM | TGI [45]: > 100 µM | TGI [46]: > 100 µM | TGI [47]: > 100 µM | TGI [48]: > 100 µM | TGI [49]: > 100 µM | TGI [50]: > 100 µM | TGI [52]: > 100 µM | TGI [53]: > 100 µM | TGI [59]: > 100 µM | TGI [54]: > 100 µM | TGI [55]: > 100 µM | TGI [56]: > 100 µM | TGI [57]: > 100 µM
